Drawing on PubChem BioAssay AID212 (DTP/NCI, 2004), this text covers T/C for 16 molecules.

“And” between values parts separate entries of the source, which are not always exact repeats. Equal values may be shown once. Results filed as inconclusive are left out.

For the assay, the system named is BDF1 mice, colon carcinoma 38 sc, T/C %. Description: NCI In Vivo Anticancer Drug Screen. Data for tumor model Colon Carcinoma 38 (subcutaneous) in B6D2F1 (BDF1) mice. Particulars: endpoint: median tumor weight (est.), higher = larger tumour. In a few lines:
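Compound antitumor activity was assessed in mice carrying transplantable tumors. Survival or tumor size was recorded, and each value is the treated-group measurement divided by that of the vehicle-treated control group.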

[1] abbreviates: dose: 6.25 mg/kg/injection, schedule: Q07DX002 (ip), vehicle: saline with Tween-80.
[2] abbreviates: dose: 12.5 mg/kg/injection, schedule: Q07DX002 (ip), vehicle: saline with Tween-80.
Where [3] appears, read: dose: 25.0 mg/kg/injection, schedule: Q07DX002 (ip), vehicle: saline with Tween-80.
Where [4] appears, read: dose: 50.0 mg/kg/injection, schedule: Q07DX002 (ip), vehicle: saline with Tween-80.
The mark [5] stands for this setting: dose: 100.0 mg/kg/injection, schedule: Q07DX002 (ip), vehicle: saline with Tween-80.
Setting [6] is: dose: 200.0 mg/kg/injection, schedule: Q07DX002 (ip), vehicle: saline with Tween-80.
[7] abbreviates: dose: 400.0 mg/kg/injection, schedule: Q07DX002 (ip), vehicle: saline with Tween-80.
Where [8] appears, read: dose: 25.0 mg/kg/injection, schedule: Q07DX003 (ip), vehicle: Klucel (hydroxypropylcellulose) (HPC).
[9] abbreviates: dose: 100.0 mg/kg/injection, schedule: Q07DX002 (ip), vehicle: Klucel (hydroxypropylcellulose) (HPC).
The mark [10] stands for this setting: dose: 100.0 mg/kg/injection, schedule: Q07DX003 (ip), vehicle: Klucel (hydroxypropylcellulose) (HPC).
Where [11] appears, read: dose: 200.0 mg/kg/injection, schedule: Q07DX002 (ip), vehicle: Klucel (hydroxypropylcellulose) (HPC).
Where [12] appears, read: dose: 200.0 mg/kg/injection, schedule: Q07DX003 (ip), vehicle: Klucel (hydroxypropylcellulose) (HPC).
The mark [13] stands for this setting: dose: 400.0 mg/kg/injection, schedule: Q07DX002 (ip), vehicle: Klucel (hydroxypropylcellulose) (HPC).

Take `C1CCC2C[N-]CCC2C1.C1CCC2C[N-]CCC2C1.C1CCC2C[N-]CCC2C1.C1CCC2C[N-]CCC2C1.[Cl][Rh][Cl]` (configuration not stated): the T/C (dose: 1.0 mg/kg/injection, schedule: Q07DX003 (ip), vehicle: saline) is 107 % of control; the T/C (dose: 2.0 mg/kg/injection, schedule: Q07DX003 (ip), vehicle: saline) was 62 % of control; the T/C (dose: 4.0 mg/kg/injection, schedule: Q07DX003 (ip), vehicle: saline) is 82 % of control; the T/C (dose: 8.0 mg/kg/injection, schedule: Q07DX003 (ip), vehicle: saline) was 87 % of control; the T/C (dose: 16.0 mg/kg/injection, schedule: Q07DX003 (ip), vehicle: saline) is 78 % of control.
With `ClCCCN1CCCCC1CCl` (configuration not stated), under “dose: 0.78 mg/kg/injection, schedule: Q07DX002 (ip), vehicle: saline”, the T/C was 80 % of control and 86 % of control.
Regarding `O=c1cc(CCl)[nH]nc1CCl`, the T/C reads like this: (dose: 3.12 mg/kg/injection, schedule: Q07DX002 (ip), vehicle: saline with Tween-80) 119 % of control; under setting [1], 91 % of control; under setting [2], 93 % of control.
Turning to `CCS/C(SC)=C(/c1ccccc1)[P+](c1ccccc1)(c1ccccc1)c1ccccc1`, the T/C is 87 % of control (dose: 1.5 mg/kg/injection, schedule: Q07DX002 (ip), vehicle: Klucel (hydroxypropylcellulose) (HPC)) and 116 % of control (dose: 3.0 mg/kg/injection, schedule: Q07DX002 (ip), vehicle: Klucel (hydroxypropylcellulose) (HPC)).
As to `COc1cc2c(c(OC)c1OC)-c1ccc(OC)c(=O)cc1[C@@H](NC(C)=O)CC2`, the T/C by setting is: (dose: 0.12 mg/kg/injection, schedule: Q07DX002 (ip), vehicle: saline) 105 % of control; (dose: 0.25 mg/kg/injection, schedule: Q07DX002 (ip), vehicle: saline) 121 % of control; (dose: 0.37 mg/kg/injection, schedule: Q07DX002 (ip), vehicle: saline) 119 % of control; (dose: 0.75 mg/kg/injection, schedule: Q07DX002 (ip), vehicle: saline) 69 % of control; (dose: 1.0 mg/kg/injection, schedule: Q07DX002 (ip), vehicle: saline) 159 % of control; (dose: 1.5 mg/kg/injection, schedule: Q07DX002 (ip), vehicle: saline) 87 % of control. The T/C by setting is: (dose: 1.56 mg/kg/injection, schedule: Q07DX002 (ip), vehicle: saline) 95 % of control; (dose: 3.0 mg/kg/injection, schedule: Q07DX002 (ip), vehicle: saline) 87 % of control; (dose: 4.0 mg/kg/injection, schedule: Q07DX002 (ip), vehicle: saline) 111 % of control; (dose: 6.0 mg/kg/injection, schedule: Q07DX002 (ip), vehicle: saline) 5 % of control.
Take `C/C=C/c1cc2n(c1)C(=O)c1cc(OC3OC(C)C(NC)C(C)(O)C3O)c(C)c(O)c1NC2O` (configuration not stated): where the note is “dose: 32.0 micrograms/kg/injection, schedule: Q07DX002 (ip), vehicle: saline”, the T/C was 42 % of control.
For the molecule `O=C1N(CC2CO2)CCN1CC1CO1` (configuration not stated), the T/C runs as follows: (dose: 25.0 mg/kg/injection, schedule: Q07DX002 (ip), vehicle: saline) 39 % of control; (dose: 50.0 mg/kg/injection, schedule: Q07DX002 (ip), vehicle: saline) 26 % of control; (dose: 100.0 mg/kg/injection, schedule: Q07DX002 (ip), vehicle: saline) 41 % of control; (dose: 200.0 mg/kg/injection, schedule: Q07DX002 (ip), vehicle: saline) 41 % of control; (dose: 400.0 mg/kg/injection, schedule: Q07DX002 (ip), vehicle: saline) 29 % of control.
Turning to `COC(=Nc1ccccc1)SSC(C)C`, the T/C is, setting by setting: under setting [3], 99 % of control; under setting [4], 84 % of control; under setting [5], 88 % of control; under setting [6], 100 % of control; under setting [7], 96 % of control.
Take `O=C(NC1CCCCC1)OCc1c(COC(=O)NC2CCCCC2)c(-c2ccc(Cl)c(Cl)c2)n2c1CCC2`: the T/C reads like this: under setting [2], 111 % of control; under setting [3], 85 % of control; under setting [4], 76 % of control; under setting [5], 95 % of control; under setting [6], 86 % of control; under setting [7], 80 % of control.
As for `CN(C1=NS(=O)(=O)N=C(N(C)c2ccccc2)O1)c1ccccc1`, the T/C was 103 % of control (dose: 12.5 mg/kg/injection, schedule: Q07DX003 (ip), vehicle: Klucel (hydroxypropylcellulose) (HPC)); 68 % of control under setting [8]; 119 % of control under setting [9]; 101 % of control under setting [10]; 110 % of control under setting [11]; 113 % of control under setting [12]. For the same molecule, the T/C under setting [13] was 162 % of control; the T/C (dose: 400.0 mg/kg/injection, schedule: Q07DX003 (ip), vehicle: Klucel (hydroxypropylcellulose) (HPC)) was 113 % of control; the T/C (dose: 800.0 mg/kg/injection, schedule: Q07DX002 (ip), vehicle: Klucel (hydroxypropylcellulose) (HPC)) is 104 % of control; the T/C (dose: 1600.0 mg/kg/injection, schedule: Q07DX002 (ip), vehicle: Klucel (hydroxypropylcellulose) (HPC)) was 159 % of control.
Regarding `O=C(O)C1(C(=O)O)CCC1.[NH2-].[NH2-].[Pt+2]`, the T/C runs as follows: (dose: 6.25 mg/kg/injection, schedule: Q07DX002 (ip), vehicle: dextrose) 81 % of control; (dose: 6.25 mg/kg/injection, schedule: Q07DX003 (ip), vehicle: other) 53 % of control; (dose: 12.5 mg/kg/injection, schedule: Q07DX003 (ip), vehicle: other) 81 % of control; (dose: 25.0 mg/kg/injection, schedule: Q07DX003 (ip), vehicle: dextrose) 64 % of control; (dose: 25.0 mg/kg/injection, schedule: Q07DX003 (ip), vehicle: other) 74 % of control; (dose: 50.0 mg/kg/injection, schedule: Q07DX003 (ip), vehicle: dextrose) 34 % of control. Besides, the T/C is, setting by setting: (dose: 50.0 mg/kg/injection, schedule: Q07DX003 (ip), vehicle: other) 42 % of control; (dose: 100.0 mg/kg/injection, schedule: Q07DX003 (ip), vehicle: dextrose) 25 % of control; (dose: 100.0 mg/kg/injection, schedule: Q07DX003 (ip), vehicle: other) 21 % of control.
On to `O=[N+]([O-])/C=C\c1ccc2c(c1)OCO2`, for which the T/C is, setting by setting: (dose: 12.5 mg/kg/injection, schedule: Q07DX002 (ip), vehicle: Klucel (hydroxypropylcellulose) (HPC)) 364 % of control; (dose: 25.0 mg/kg/injection, schedule: Q07DX002 (ip), vehicle: Klucel (hydroxypropylcellulose) (HPC)) 364 % of control; under setting [8], 64 % of control and 71 % of control; (dose: 50.0 mg/kg/injection, schedule: Q07DX002 (ip), vehicle: Klucel (hydroxypropylcellulose) (HPC)) 185 % of control; under setting [9], 93 % of control; under setting [10], 88 % of control and 92 % of control. Besides, the T/C is 77 % of control under setting [11], 56 % of control under setting [12] and 102 % of control under setting [13].
In the case of `Nc1ccc2nc3c4ccccc4c(O)n3nc2c1`, the T/C runs as follows: under setting [4], 83 % of control; under setting [5], 101 % of control; under setting [6], 94 % of control; under setting [7], 98 % of control.
Consider `Cc1cc(N(CC(C)Br)CC(C)Br)ccc1N=Nc1ccccc1C(=O)O` (configuration not stated), for which the T/C is, setting by setting: (dose: 1.56 mg/kg/injection, schedule: Q07DX002 (ip), vehicle: saline with Tween-80) 87 % of control and 96 % of control; under setting [1], 85 % of control; under setting [2], 95 % of control and 102 % of control; under setting [3], 73 % of control and 86 % of control.
Take `CN(C)CCOc1ccc2c(c1)C/C(=C/c1ncc([N+](=O)[O-])n1C)C2=O`: the T/C runs as follows: under setting [2], 76 % of control; under setting [3], 94 % of control; under setting [4], 106 % of control; under setting [5], 91 % of control; under setting [6], 106 % of control; under setting [7], 50 % of control.
For `C1CN2CCC1CC2`, the T/C runs as follows: (dose: 3.12 mg/kg/injection, schedule: Q07DX003 (ip), vehicle: saline) 101 % of control; (dose: 6.25 mg/kg/injection, schedule: Q07DX003 (ip), vehicle: saline) 78 % of control.
